In patent US10117912B2 (priority 2013, dated 2018):
Values after ≈ are worked out from the molar mass of the structure shown. Like-named read-outs stand apart in the source and are kept apart here.

Key:
[1] = system: alkaline phosphatase from bovine intestinal mucosa; format: biochemical
[2] = Equilibrium solubility of phenytoin in assay buffer; format: physicochemical
Procedure: 10 mg of phenytoin was added to a 20 mL scintillation vial containing 2 mL assay buffer, pH 7.4 (122 mM NaCl, 25 mM NaHCO3, 10 mM glucose, 10 mM HEPES, 3 mM KCl, 1.2 mM MgSO4, 1.4 mM CaCl2, and 0.4 mM K2HPO4). The vials were placed in a shaker incubator at different temperatures (28, 32 and 37° C.). After 48 h, drug suspension from vial was centrifuged at 13000 g for 20 min. Using a 0.2 μm syringe filter, the supernatant was filtered into a fresh glass vial and analyzed using HPLC. The experiments were performed in triplicate.

[3] = prodrug S=6.1 with 0.6 IU/mL enzyme, 3 h

alkaline phosphatase
membrane integrity (TEER) (MDCKII-wt monolayer; pH 7.4): not compromised

O=C1NC(c2ccccc2)(c2ccccc2)C(=O)N1COP(=O)(O)O [fosphenytoin, Fosphenytoin disodium]
kcat [1]: 2880 s⁻¹ | extent of conversion of prodrug to drug ([1]; fosphenytoin 586 μM, various enzyme concentrations): Complete conversion | Vmax (Michaelis-Menten) ([1]; pH 7.4): 51.1 ± 1.8 µM/min | Km ([1]; pH 7.4, read-out: KM (Michaelis-Menten)): 828 ± 81.6 µM | membrane integrity (TEER) (MDCKII-wt monolayer; 3 h treatment, pH 7.4, 32° C., enzyme alone or prodrug alone at S=0.8 or S=6.1): not compromised | TEER value (MDCKII-wt monolayer; [3]): > 60 ohms/cm^2 | membrane integrity (TEER), prodrug with enzyme (MDCKII-wt monolayer; [3]): minor compromise of intercellular tight junctions

O=C1NC(=O)C(c2ccccc2)(c2ccccc2)N1 [phenytoin]
effect of temperature on solubility ([2]; 28° C. and 37° C., pH 7.4): unaffected | solubility at 48 h ([2]; aqueous buffer, thermodynamic from solid, pH 7.4 and 32° C., assay buffer, 48 h): 126 ± 5.6 µM (≈ 31.9 µg/mL)
